Assay results reported in patent EP3212201B1, “NUCLEOSIDE KINASE INHIBITORS” (BCI Pharma, priority 2014, dated 2016).

Assays:
Assay in all cases: FRET-based coupled-enzyme protein kinase inhibition assay
Type in all cases: biochemical
Conditions in all cases: compound at 10 µM, 1% DMSO
DYRK3 = molecular target: T1, DYRK3 (Homo sapiens, UniProt O43781)
T1 sequence (O43781 1-588): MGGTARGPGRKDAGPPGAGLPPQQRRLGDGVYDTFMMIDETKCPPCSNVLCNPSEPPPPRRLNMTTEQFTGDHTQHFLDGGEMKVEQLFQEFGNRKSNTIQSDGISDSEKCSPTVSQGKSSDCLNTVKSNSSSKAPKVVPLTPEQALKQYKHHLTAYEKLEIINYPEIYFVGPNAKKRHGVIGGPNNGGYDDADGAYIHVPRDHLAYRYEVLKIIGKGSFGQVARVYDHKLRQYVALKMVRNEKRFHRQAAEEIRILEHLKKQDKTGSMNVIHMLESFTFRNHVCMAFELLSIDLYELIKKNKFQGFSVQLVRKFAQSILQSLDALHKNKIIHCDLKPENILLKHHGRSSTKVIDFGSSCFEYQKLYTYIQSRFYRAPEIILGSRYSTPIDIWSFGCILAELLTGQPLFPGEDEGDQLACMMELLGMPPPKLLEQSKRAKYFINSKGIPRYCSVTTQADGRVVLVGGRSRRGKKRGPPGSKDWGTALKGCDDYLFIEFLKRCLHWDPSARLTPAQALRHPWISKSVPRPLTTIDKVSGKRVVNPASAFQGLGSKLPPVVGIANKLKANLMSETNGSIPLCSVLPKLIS
How it was run: (§1)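 Inhibition was quantified ratiometrically, as coumarin over fluorescein emission following 400 nm excitation, on a doubly labeled peptide whose cleavage by development reagent requires it to remain unphosphorylated. Kinase reactions ran 60 min at room temperature with ATP at apparent Km.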

FGFR1 = FGFR1 (Homo sapiens, UniProt P11362)
FGFR1, sequence (P11362 22-822, species assumed): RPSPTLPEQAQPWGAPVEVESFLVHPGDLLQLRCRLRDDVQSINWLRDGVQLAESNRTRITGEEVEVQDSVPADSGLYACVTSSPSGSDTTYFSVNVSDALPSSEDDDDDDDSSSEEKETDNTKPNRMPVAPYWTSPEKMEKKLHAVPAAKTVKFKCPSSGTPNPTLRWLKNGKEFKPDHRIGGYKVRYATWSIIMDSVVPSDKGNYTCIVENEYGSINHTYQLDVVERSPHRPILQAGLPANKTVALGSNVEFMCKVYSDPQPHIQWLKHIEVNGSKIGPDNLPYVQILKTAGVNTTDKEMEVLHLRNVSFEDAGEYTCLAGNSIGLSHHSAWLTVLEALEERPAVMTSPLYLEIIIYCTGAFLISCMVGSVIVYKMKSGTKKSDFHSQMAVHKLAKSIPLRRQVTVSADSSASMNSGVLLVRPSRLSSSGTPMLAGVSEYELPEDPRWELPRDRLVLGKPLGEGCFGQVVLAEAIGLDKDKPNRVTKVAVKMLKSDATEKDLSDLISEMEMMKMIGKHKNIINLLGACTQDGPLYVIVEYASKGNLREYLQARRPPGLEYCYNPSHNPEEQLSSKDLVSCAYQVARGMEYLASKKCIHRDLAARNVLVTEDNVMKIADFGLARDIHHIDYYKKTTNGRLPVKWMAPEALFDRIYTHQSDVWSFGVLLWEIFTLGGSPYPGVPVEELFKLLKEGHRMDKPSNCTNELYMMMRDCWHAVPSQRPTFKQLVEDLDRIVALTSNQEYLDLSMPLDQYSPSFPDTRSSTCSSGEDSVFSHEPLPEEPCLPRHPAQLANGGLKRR
How it was run: as §1

MAPK1 (ERK2) = MAPK1 (ERK2) (Homo sapiens, UniProt P28482)
MAPK1 (ERK2), sequence (P28482 whole entry, species assumed): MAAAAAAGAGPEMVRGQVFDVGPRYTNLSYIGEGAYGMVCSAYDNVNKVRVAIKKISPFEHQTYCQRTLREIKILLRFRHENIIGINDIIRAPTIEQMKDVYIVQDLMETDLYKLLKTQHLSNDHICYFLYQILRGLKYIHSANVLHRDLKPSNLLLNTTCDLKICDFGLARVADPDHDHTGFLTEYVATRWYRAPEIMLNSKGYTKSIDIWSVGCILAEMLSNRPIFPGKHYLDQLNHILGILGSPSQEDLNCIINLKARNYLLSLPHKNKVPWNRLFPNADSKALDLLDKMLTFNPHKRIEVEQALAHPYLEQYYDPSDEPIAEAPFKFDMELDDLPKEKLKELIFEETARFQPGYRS
How it was run: as §1

MAPK8 (JNK1) = MAPK8 (JNK1) (Homo sapiens, UniProt P45983)
MAPK8 (JNK1), sequence (P45983 whole entry, species assumed): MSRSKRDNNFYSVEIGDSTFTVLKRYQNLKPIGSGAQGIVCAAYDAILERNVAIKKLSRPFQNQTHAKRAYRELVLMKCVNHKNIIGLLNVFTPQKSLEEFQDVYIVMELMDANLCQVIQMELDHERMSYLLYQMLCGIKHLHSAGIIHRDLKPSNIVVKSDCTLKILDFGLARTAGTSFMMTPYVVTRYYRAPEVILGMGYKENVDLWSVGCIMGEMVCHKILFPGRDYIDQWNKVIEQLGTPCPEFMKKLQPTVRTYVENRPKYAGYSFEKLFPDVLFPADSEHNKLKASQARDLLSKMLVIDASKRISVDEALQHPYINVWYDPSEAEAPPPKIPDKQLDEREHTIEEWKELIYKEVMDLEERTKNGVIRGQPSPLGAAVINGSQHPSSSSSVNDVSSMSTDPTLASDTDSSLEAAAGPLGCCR
How it was run: as §1

RPS6KB1 (p70S6K) = RPS6KB1 (p70S6K) (Homo sapiens, UniProt P23443)
RPS6KB1 (p70S6K), sequence (P23443 whole entry, species assumed): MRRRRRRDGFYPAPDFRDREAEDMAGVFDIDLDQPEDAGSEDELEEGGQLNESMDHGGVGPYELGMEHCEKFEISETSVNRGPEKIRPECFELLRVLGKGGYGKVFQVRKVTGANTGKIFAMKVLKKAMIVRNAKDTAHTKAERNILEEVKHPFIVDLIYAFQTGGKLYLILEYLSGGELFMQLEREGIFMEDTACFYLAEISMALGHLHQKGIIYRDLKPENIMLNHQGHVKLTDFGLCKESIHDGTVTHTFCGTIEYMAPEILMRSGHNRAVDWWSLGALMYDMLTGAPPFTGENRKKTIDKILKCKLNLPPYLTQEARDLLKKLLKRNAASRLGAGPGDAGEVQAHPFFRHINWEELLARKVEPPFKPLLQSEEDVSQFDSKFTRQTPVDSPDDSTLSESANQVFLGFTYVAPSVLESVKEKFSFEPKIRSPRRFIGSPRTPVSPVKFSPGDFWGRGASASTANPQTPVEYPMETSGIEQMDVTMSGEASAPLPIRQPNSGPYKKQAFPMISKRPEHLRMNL
How it was run: as §1

SYK = SYK (Homo sapiens, UniProt P43405)
How it was run: as §1

Compound	inhibition at 10 µM (DYRK3)	inhibition at 10 µM (FGFR1)	inhibition at 10 µM (MAPK1 (ERK2))	inhibition at 10 µM (MAPK8 (JNK1))	inhibition at 10 µM (RPS6KB1 (p70S6K))	inhibition at 10 µM (SYK)
Nc1ncnc2c1ncn2[C@@H]1O[C@H](COC(=O)N2CCC[C@H]2CO)[C@@H](O)[C@H]1O [Compound C9]	11%	3%	11%	3%	3%	-4%
Nc1ncnc2c1ncn2[C@@H]1O[C@H](COC(=O)N2CCN(Cc3ccccc3)CC2CO)[C@@H](O)[C@H]1O (stereo partly drawn) [Compound C13]	9%	5%	10%	2%	10%	0%
CC(C)N1CCC(NC(=O)OC[C@H]2O[C@@H](n3cnc4c(N)ncnc43)[C@H](O)[C@@H]2O)CC1 [Compound C19]	9%	6%	7%	0%	3%	-1%
Nc1ncnc2c1ncn2[C@@H]1O[C@H](COC(=O)NCCN2CCCC2=O)[C@@H](O)[C@H]1O [Compound C22]	3%	0%	9%	5%	0%	-8%
Nc1ncnc2c1ncn2[C@@H]1O[C@H](COC(=O)N2CCN(CCc3ccccc3)CC2)[C@@H](O)[C@H]1O [Compound C26]	2%	9%	11%	8%	8%	-4%
CN1CCN(CCNC(=O)OC[C@H]2O[C@@H](n3cnc4c(N)ncnc43)[C@H](O)[C@@H]2O)CC1 [Compound C46]	4%	9%	9%	-2%	14%	0%
N#CCCN1CCN(C(=O)OC[C@H]2O[C@@H](n3cnc4c(N)ncnc43)[C@H](O)[C@@H]2O)CC1 [Compound C70]	6%	1%	16%	8%	6%	-1%
Nc1ncnc2c1ncn2[C@@H]1O[C@H](COC(=O)N2CCN(C(=O)N3CCOCC3)CC2)[C@@H](O)[C@H]1O [Compound C89]	3%	16%	9%	5%	0%	-5%
CS(=O)(=O)N1CC2(CCN(C(=O)OC[C@H]3O[C@@H](n4cnc5c(N)ncnc54)[C@H](O)[C@@H]3O)CC2)c2ccccc21 [Compound C98]	5%	9%	16%	4%	0%	2%
Nc1ncnc2c1ncn2[C@@H]1O[C@H](COC(=O)N2CCS(=O)(=O)CC2)[C@@H](O)[C@H]1O [Compound C100]	12%	0%	13%	7%	13%	-3%

Other lines, results leading:

inhibition at 10 µM (DYRK3)	inhibition at 10 µM (FGFR1)	inhibition at 10 µM (MAPK1 (ERK2))	inhibition at 10 µM (MAPK8 (JNK1))	inhibition at 10 µM (RPS6KB1 (p70S6K))	inhibition at 10 µM (SYK)	Compound
12%	21%	7%	12%	15%	3%	Nc1ncnc2c1ncn2[C@@H]1O[C@H](COC(=O)NCCCc2nc3ccccc3[nH]2)[C@@H](O)[C@H]1O [Compound C1]
5%	6%	8%	14%	22%	4%	C[C@@H](NC(=O)OC[C@H]1O[C@@H](n2cnc3c(N)ncnc32)[C@H](O)[C@@H]1O)c1ccc(Cl)cc1 [Compound C4]
31%	26%	16%	13%	11%	7%	Nc1ncnc2c1ncn2[C@@H]1O[C@H](COC(=O)NC[C@H](O)CO)[C@@H](O)[C@H]1O [Compound C8]
8%	20%	8%	6%	5%	1%	Nc1ncnc2c1ncn2[C@@H]1O[C@H](COC(=O)N[C@@H]2CCN(Cc3ccccc3)C2)[C@@H](O)[C@H]1O [Compound C10]
7%	13%	9%	6%	16%	1%	Nc1ncnc2c1ncn2[C@@H]1O[C@H](COC(=O)N2CCC(Cc3ccc(F)cc3)C2)[C@@H](O)[C@H]1O (stereo partly drawn) [Compound C66]
7%	4%	8%	4%	-1%	-1%	CN(C)CCNC(=O)OC[C@H]1O[C@@H](n2cnc3c(N)ncnc32)[C@H](O)[C@@H]1O [Compound C85]
